Experimental findings from US20260297070A1, “CYCLIC [COMPOUND LEFT OUT] WRN INHIBITORS” (Nimbus Wadjet, Inc., priority 2023, published 2026) are described below.

In the experiment the target is T1, human Werner helicase (WRN-BV08, Uniprot Q14191, amino acids 517-1235 with L1074F point mutation) (Homo sapiens, UniProt Q14191, L1074F).
T1 construct: Uniprot Q14191, amino acids 517-1235 with L1074F point mutation; TEV-cleavable 8×His (C, cleaved yes); made in house; host or cells: Sf9 insect cells (baculovirus)
T1 sequence (Q14191 with tags, fused parts or gaps L1074F limits assumed): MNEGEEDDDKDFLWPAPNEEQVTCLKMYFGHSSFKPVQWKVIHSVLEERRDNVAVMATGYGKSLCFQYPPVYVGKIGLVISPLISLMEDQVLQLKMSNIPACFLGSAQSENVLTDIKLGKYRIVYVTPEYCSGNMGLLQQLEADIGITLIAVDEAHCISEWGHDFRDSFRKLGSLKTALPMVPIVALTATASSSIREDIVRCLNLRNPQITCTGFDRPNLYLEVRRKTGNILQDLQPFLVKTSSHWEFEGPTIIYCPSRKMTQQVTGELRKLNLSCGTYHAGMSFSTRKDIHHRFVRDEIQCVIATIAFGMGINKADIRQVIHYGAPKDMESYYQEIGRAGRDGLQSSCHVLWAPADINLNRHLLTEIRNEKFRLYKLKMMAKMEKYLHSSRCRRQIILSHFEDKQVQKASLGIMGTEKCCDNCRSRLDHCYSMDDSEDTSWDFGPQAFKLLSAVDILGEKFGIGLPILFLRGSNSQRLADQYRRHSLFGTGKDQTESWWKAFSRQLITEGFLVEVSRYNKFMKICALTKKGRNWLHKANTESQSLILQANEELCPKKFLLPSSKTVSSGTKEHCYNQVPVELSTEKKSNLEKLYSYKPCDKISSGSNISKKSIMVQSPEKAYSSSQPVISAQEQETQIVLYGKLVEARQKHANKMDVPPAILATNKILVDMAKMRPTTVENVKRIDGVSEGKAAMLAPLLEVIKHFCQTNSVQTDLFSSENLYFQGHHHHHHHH
Kind of experiment: WRN (BV08) ADP-Glo Assay. As to conditions: 0.15 nM WRN, 5 μM ATP, 0.1 nM DNA duplex, 15 min preincubation, 60 min at 25° C., pH 7.5, 1% DMSO; read-out: ADP-Glo_hWRN_IC50. The class given is biochemical. The procedure, abridged:
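ADP produced by WRN helicase fragment 517-1235 (L1074F, baculovirus/Sf9, untagged) read by ADP-Glo luminescence after 60 min at 25 °C with 5 μM ATP and 0.1 nM duplex DNA, following 15 min compound preincubation. Final enzyme 0.15 nM in Bicine pH 7.5 buffer, 1% DMSO; 20 μM NSC-617145 defined full inhibition.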
Background: ADP-Glo turns the ADP formed in a reaction into a luminescent signal.
Turning to `CC(C(=O)N(Cc1ccncc1)C1C=CS(=O)(=O)C1)c1ccc(-c2ccc(F)cc2)cc1` (stereo not drawn) [I-266, N-(1,1-dioxo-2,3-dihydro-1lambda6-thiophen-3-yl)-2-{4′-fluoro-[1,1′-biphenyl]-4-yl}-N-[(pyridin-4-yl)methyl]propanamide], the IC50 was 5 to 10 µM.
`O=C(Cc1ccc(S(F)(F)(F)(F)F)cc1)N(Cc1ccncc1)C1C=CS(=O)(=O)C1` (single isomer, unassigned) [I-51]: the IC50 is less than 0.5 µM.
With `O=C(Cc1ccc(S(F)(F)(F)(F)F)cc1)N(Cc1cc(C2CC2)no1)C1C=CS(=O)(=O)C1` (stereo not drawn) [I-624, N-[(3-cyclopropyl-1,2-oxazol-5-yl)methyl]-N-(1,1-dioxo-2,3-dihydro-1lambda6-thiophen-3-yl)-2-[4-(pentafluoro-lambda6-sulfanyl)phenyl]acetamide], the IC50 was in the range of 0.5 to 5 µM.
To `CS(=O)(=O)N1CCN(C(C(=O)N(Cc2ccncc2)C2C=CS(=O)(=O)C2)c2ccc(-c3ccc(F)cc3)cc2)CC1` (stereo not drawn) [I-548, N-(1,1-dioxo-2,3-dihydro-1lambda6-thiophen-3-yl)-2-{4′-fluoro-[1,1′-biphenyl]-4-yl}-2-(4-methanesulfonylpiperazin-1-yl)-N-[(pyridin-4-yl)methyl]acetamide] belongs more than 50 µM.
Consider `C#CCCCC(=O)N1CCN(C(=O)c2ccc(CN(C(=O)Cc3ccc(-n4cccc4C)cc3F)C3C=CS(=O)(=O)C3)cc2)CC1` (stereo not drawn) [I-182, N-(1,1-dioxo-2,3-dihydro-1lambda6-thiophen-3-yl)-2-[2-fluoro-4-(2-methyl-1H-pyrrol-1-yl)phenyl]-N-({4-[4-(hex-5-ynoyl)piperazine-1-carbonyl]phenyl}methyl)acetamide], for which the IC50 lay in the range of 0.5 to 5 µM.
With `O=C(Cc1ccc(-n2cccc2)cc1)N(Cc1ccc2ccccc2n1)C1C=CS(=O)(=O)C1` (stereo not drawn) [I-210, N-(1,1-dioxo-2,3-dihydro-1lambda6-thiophen-3-yl)-2-[4-(1H-pyrrol-1-yl)phenyl]-N-[(quinolin-2-yl)methyl]acetamide], the IC50 fell in the range of 0.5 to 5 µM.
To `O=C(Cc1ccc(C(F)(F)F)nc1)N(Cc1ccncc1)C1C=CS(=O)(=O)C1` (stereo not drawn) [I-367, N-(1,1-dioxo-2,3-dihydro-1lambda6-thiophen-3-yl)-N-[(pyridin-4-yl)methyl]-2-[6-(trifluoromethyl)pyridin-3-yl]acetamide] belongs 10 to 50 µM.
To `COc1cc(CN(C(=O)Cc2ccc(-c3csc(C)n3)cc2F)C2C=CS(=O)(=O)C2)ccn1` (stereo not drawn) [I-573, N-(1,1-dioxo-2,3-dihydro-1lambda6-thiophen-3-yl)-2-[2-fluoro-4-(2-methyl-1,3-thiazol-4-yl)phenyl]-N-[(2-methoxypyridin-4-yl)methyl]acetamide] belongs more than 50 µM; to `O=C(Cc1ccc(-c2ccc(F)cc2)cc1F)N(Cc1nc(C2CC2)cs1)C1C=CS(=O)(=O)C1` (stereo not drawn) [I-80, N-[(4-cyclopropyl-1,3-thiazol-2-yl)methyl]-2-{3,4′-difluoro-[1,1′-biphenyl]-4-yl}-N-(1,1-dioxo-2,3-dihydro-1lambda6-thiophen-3-yl)acetamide], less than 0.5 µM; to `COc1cc(C(C)N(C(=O)Cn2cc(-c3cc(F)c(F)c(F)c3)cn2)C2C=CS(=O)(=O)C2)ccn1` (single isomer, unassigned) [I-828, N-[(3R**)-1,1-dioxo-2,3-dihydro-1lambda6-thiophen-3-yl]-N-[(1R*)-1-(2-methoxypyridin-4-yl)ethyl]-2-[4-(3,4,5-trifluorophenyl)-1H-pyrazol-1-yl]acetamide], 0.5 to 5 µM.
To `COc1cc(CN(C(=O)Cc2ccc(-c3ccc(F)cc3)cc2Cl)C2C=CS(=O)(=O)C2)ccn1` (stereo not drawn) [I-136, 2-{3-chloro-4′-fluoro-[1,1′-biphenyl]-4-yl}-N-(1,1-dioxo-2,3-dihydro-1lambda6-thiophen-3-yl)-N-[(2-methoxypyridin-4-yl)methyl]acetamide] belongs 0.5 to 5 µM; to `CCc1cccn1-c1ccc(CC(=O)N(Cc2ccnc(OC)c2)C2C=CS(=O)(=O)C2)c(F)c1` (stereo not drawn) [I-204, N-(1,1-dioxo-2,3-dihydro-1lambda6-thiophen-3-yl)-2-[4-(2-ethyl-1H-pyrrol-1-yl)-2-fluorophenyl]-N-[(2-methoxypyridin-4-yl)methyl]acetamide], 0.5 to 5 µM.
